Experimental data published in ChEMBL document CHEMBL3120105, “Identification of weak points of hepatitis C virus NS3 protease inhibitors using surface plasmon resonance biosensor-based interaction kinetic analysis and genetic variants” (J Med Chem, 2014).
Where a SMILES comes first, the peptide text is derived from it. [ ]: non-standard residue; d: D form. dGla = N[C@H](CC(C(=O)O)C(=O)O)C(=O)O; Cha = N[C@@H](CC1CCCCC1)C(=O)O

Experiments:
[1] = Inhibition of Hepatitis C virus genotype 1a full-length NS3/NS4A protease assessed as equilibrium dissociation constant by surface plasmon resonance biosensor-based interaction kinetic analysis; parameters: species or system Hepatitis C virus subtype 1a
[2] = Inhibition of Hepatitis C virus genotype 1b full-length NS3 protease assessed as overall/observed affinity by surface plasmon resonance biosensor-based interaction kinetic analysis; parameters: species or system Hepatitis C virus subtype 1b
[3] = Inhibition of Hepatitis C virus genotype 1a full-length NS3 protease assessed as overall/observed affinity by surface plasmon resonance biosensor-based interaction kinetic analysis; parameters: species or system Hepatitis C virus subtype 1a
[4] = Inhibition of Hepatitis C virus genotype 3a full-length NS3 protease assessed as equilibrium dissociation constant by surface plasmon resonance biosensor-based interaction kinetic analysis; parameters: species or system Hepatitis C virus subtype 3a
[5] = Inhibition of Hepatitis C virus genotype 1b NS3 protease domain assessed as overall/observed affinity by surface plasmon resonance biosensor-based interaction kinetic analysis; parameters: species or system Hepatitis C virus subtype 1b
[6] = Inhibition of Hepatitis C virus genotype 3a full-length NS3 protease assessed as overall/observed affinity by surface plasmon resonance biosensor-based interaction kinetic analysis; parameters: species or system Hepatitis C virus subtype 3a
[7] = Inhibition of Hepatitis C virus genotype 1b full-length NS3 protease assessed as equilibrium dissociation constant by surface plasmon resonance biosensor-based interaction kinetic analysis; parameters: species or system Hepatitis C virus subtype 1b
[8] = Inhibition of Hepatitis C virus genotype 1b full-length NS3/NS4A protease assessed as equilibrium dissociation constant by surface plasmon resonance biosensor-based interaction kinetic analysis; parameters: species or system Hepatitis C virus subtype 1b
[9] = Inhibition of Hepatitis C virus genotype 1a full-length NS3/NS4A protease assessed as overall/observed affinity by surface plasmon resonance biosensor-based interaction kinetic analysis; parameters: species or system Hepatitis C virus subtype 1a
[10] = Inhibition of Hepatitis C virus genotype 1b NS3 protease domain assessed as equilibrium dissociation constant by surface plasmon resonance biosensor-based interaction kinetic analysis; parameters: species or system Hepatitis C virus subtype 1b
[11] = Inhibition of Hepatitis C virus genotype 1a full-length NS3 protease assessed as equilibrium dissociation constant by surface plasmon resonance biosensor-based interaction kinetic analysis; parameters: species or system Hepatitis C virus subtype 1a
[12] = Inhibition of Hepatitis C virus genotype 1b full-length NS3/NS4A protease assessed as overall/observed affinity by surface plasmon resonance biosensor-based interaction kinetic analysis; parameters: species or system Hepatitis C virus subtype 1b

## CC[C@H](C)[C@H](NC(=O)[C@H](CC(C)C)NC(=O)[C@@H](CC(C(=O)O)C(=O)O)NC(=O)[C@H](CC(=O)O)NC(C)=O)C(=O)N[C@@H](CC1CCCCC1)C(=O)N[C@@H](CS)C(=O)O (Ac-D[dGla]LI[Cha]C-OH)
[1]
  Kd: 36000 nM
[2]
  Kd: 5600 nM
[3]
  Kd: 200 nM
[4]
  Kd: 1400 nM
[5]
  Kd: 3300 nM
[6]
  Kd: 870 nM
[7]
  Kd: 7200 nM
[8]
  Kd: 5800 nM
[9]
  Kd: 17000 nM
[10]
  Kd: 7200 nM
[11]
  Kd: 3900 nM
[12]
  Kd: 2000 nM

## CC(C)(C)NC(=O)N[C@H](C(=O)N1C[C@H]2[C@@H]([C@H]1C(=O)NC(CC1CCC1)C(=O)C(N)=O)C2(C)C)C(C)(C)C (stereo partly specified) [BOCEPREVIR]
[2]
  Kd: 90 nM
[4]
  Kd: 1700 nM
[5]
  Kd: 3200 nM
[6]
  Kd: 3.9 nM
[7]
  Kd: 16000 nM
[8]
  Kd: 7700 nM
[10]
  Kd: 16000 nM
[12]
  Kd: 38 nM

## COc1ccc2c(O[C@@H]3C[C@H]4C(=O)N[C@]5(C(=O)O)C[C@H]5/C=C\CCCCC[C@H](NC(=O)OC5CCCC5)C(=O)N4C3)cc(-c3csc(NC(C)C)n3)nc2c1 [CILUPREVIR]
[1]
  Kd: 2.1 nM
[2]
  Kd: 67 nM
[3]
  Kd: 1.3 nM
[4]
  Kd: 3300 nM
[5]
  Kd: 2.5 nM
[6]
  Kd: 160 nM
[7]
  Kd: 220 nM
[8]
  Kd: 71 nM
[9]
  Kd: 2.1 nM
[10]
  Kd: 7.3 nM
[11]
  Kd: 3 nM
[12]
  Kd: 71 nM

## CC(C)(C)OC(=O)N[C@H]1CCCCC/C=C\[C@@H]2C[C@@]2(C(=O)NS(=O)(=O)C2CC2)NC(=O)[C@@H]2C[C@@H](OC(=O)N3Cc4cccc(F)c4C3)CN2C1=O [DANOPREVIR]
[1]
  Kd: 4 nM
[2]
  Kd: 1.6 nM
[3]
  Kd: 0.13 nM
[4]
  Kd: 21 nM
[5]
  Kd: 10000 nM
[6]
  Kd: 0.52 nM
[7]
  Kd: 1.6 nM
[8]
  Kd: 6.5 nM
[9]
  Kd: 1.6 nM
[10]
  Kd: 19000 nM
[11]
  Kd: 2.5 nM
[12]
  Kd: 6.5 nM

## CCC[C@H](NC(=O)[C@@H]1[C@H]2CCC[C@H]2CN1C(=O)[C@@H](NC(=O)[C@@H](NC(=O)c1cnccn1)C1CCCCC1)C(C)(C)C)C(=O)C(=O)NC1CC1 [TELAPREVIR]
[1]
  Kd: 14000 nM
[2]
  Kd: 8.5 nM
[3]
  Kd: 340 nM
[4]
  Kd: 66000 nM
[5]
  Kd: 3000 nM
[6]
  Kd: 1000 nM
[7]
  Kd: 8.6 nM
[8]
  Kd: 67 nM
[9]
  Kd: 17 nM
[10]
  Kd: 4100 nM
[11]
  Kd: 2000 nM
[12]
  Kd: 66 nM
